In patent US9604988B2, “Agent for treating or inhibiting recurrence of acute myeloid leukemia” (RIKEN, priority 2012, dated 2017):

Target: T1, FLT3-ITD (Homo sapiens, UniProt P36888, ITD)
T1 sequence (P36888 27-993): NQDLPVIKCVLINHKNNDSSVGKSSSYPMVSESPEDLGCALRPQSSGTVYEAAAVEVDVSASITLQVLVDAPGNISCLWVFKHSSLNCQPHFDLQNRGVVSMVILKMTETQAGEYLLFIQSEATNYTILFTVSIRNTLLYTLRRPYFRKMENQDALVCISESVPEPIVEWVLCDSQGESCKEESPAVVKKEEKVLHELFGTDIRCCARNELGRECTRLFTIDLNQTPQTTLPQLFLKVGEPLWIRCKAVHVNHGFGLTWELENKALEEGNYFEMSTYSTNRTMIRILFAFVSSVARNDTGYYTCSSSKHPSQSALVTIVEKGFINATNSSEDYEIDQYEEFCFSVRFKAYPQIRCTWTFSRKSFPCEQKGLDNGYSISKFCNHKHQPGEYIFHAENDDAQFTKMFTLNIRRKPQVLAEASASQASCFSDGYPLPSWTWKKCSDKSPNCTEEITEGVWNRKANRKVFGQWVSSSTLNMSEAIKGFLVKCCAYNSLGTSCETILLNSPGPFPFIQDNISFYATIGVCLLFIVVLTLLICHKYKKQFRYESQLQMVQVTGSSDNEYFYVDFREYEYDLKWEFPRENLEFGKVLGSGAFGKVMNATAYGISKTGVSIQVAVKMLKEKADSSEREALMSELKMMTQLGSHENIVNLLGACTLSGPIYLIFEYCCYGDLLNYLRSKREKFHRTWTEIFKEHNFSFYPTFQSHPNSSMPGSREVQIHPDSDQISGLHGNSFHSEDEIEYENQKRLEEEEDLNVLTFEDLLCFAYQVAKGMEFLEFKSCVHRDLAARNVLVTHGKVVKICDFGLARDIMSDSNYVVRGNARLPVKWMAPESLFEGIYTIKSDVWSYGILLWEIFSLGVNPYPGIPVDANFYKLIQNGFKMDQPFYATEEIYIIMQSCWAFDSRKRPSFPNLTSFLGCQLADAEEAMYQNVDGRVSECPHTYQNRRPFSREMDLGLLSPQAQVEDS
Test: FLT3-ITD kinase inhibition
Format: biochemical

Compound | IC50
NC(=O)CN[C@H]1CC[C@H](n2cc(-c3ccc(Oc4ccccc4)cc3)c3c(N)ncnc32)CC1 [Example 11, 2-(((trans)-4-(4-Amino-5-(4-phenoxyphenyl)-7H-pyrrolo[2,3-d]pyrimidin-7-yl)cyclohexyl)amino)acetamide] | 23 nM
Nc1ncnc2c1c(-c1ccc(Oc3ccccc3)cc1)cn2[C@H]1CC[C@@H](NCc2ccncc2)CC1 [Example 5, 5-(4-phenoxyphenyl)-7-((cis)-4-((pyridin-4-ylmethyl)amino)cyclohexyl)-7H-pyrrolo[2,3-d]pyrimidin-4-amine] | 6.6 nM
Nc1ncnc2c1c(-c1ccc(Oc3ccccc3)cc1)cn2[C@H]1CC[C@H](N[C@H]2CCNC2=O)CC1 [Example 54, (S)-3-(((trans)-4-(4-amino-5-(4-phenoxyphenyl)-7H-pyrrolo[2,3-d]pyrimidin-7-yl)cyclohexyl)amino)pyrrolidin-2-one] | 25 nM
NC(=O)CN[C@H]1CC[C@@H](n2cc(-c3ccc(Oc4ccccc4)cc3)c3c(N)ncnc32)CC1 [Example 10, 2-(((cis)-4-(4-Amino-5-(4-phenoxyphenyl)-7H-pyrrolo[2,3-d]pyrimidin-7-yl)cyclohexyl)amino)acetamide] | 23 nM

Target: HCK (Homo sapiens, UniProt P08631)
Sequence (P08631 whole entry): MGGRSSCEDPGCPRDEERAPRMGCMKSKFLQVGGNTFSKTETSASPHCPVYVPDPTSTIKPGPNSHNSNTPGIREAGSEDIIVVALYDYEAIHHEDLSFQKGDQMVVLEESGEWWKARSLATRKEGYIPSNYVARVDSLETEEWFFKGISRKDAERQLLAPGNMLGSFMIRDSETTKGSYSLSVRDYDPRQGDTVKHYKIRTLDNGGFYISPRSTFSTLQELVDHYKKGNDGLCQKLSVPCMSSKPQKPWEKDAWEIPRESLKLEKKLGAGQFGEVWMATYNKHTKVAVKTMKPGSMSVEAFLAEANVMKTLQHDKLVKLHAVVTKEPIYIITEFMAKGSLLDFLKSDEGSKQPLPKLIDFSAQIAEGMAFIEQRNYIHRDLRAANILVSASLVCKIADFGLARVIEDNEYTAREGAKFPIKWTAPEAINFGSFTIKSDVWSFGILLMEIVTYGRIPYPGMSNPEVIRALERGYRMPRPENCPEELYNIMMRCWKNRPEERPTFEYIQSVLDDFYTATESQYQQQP
Test: HCK kinase inhibition
Format: biochemical

Compound | IC50
CCc1nnc2n1CCN([C@H]1CC[C@H](n3cc(-c4ccc(NC(=O)c5cc6ccccc6n5C)c(OC)c4)c4c(N)ncnc43)CC1)C2 [Example 32, N-(4-(4-amino-7-((trans)-4-(3-ethyl-5,6-dihydro[1,2,4]triazolo[4,3-a]pyrazin-7(8H)-yl)cyclohexyl)-7H-pyrrolo[2,3-d]pyrimidin-5-yl)-2-methoxyphenyl)-1-methyl-1H-indole-2-carboxamide] | 14 nM
COc1cc(-c2cn([C@H]3CC[C@H](N4CCn5c(nnc5C(F)(F)F)C4)CC3)c3ncnc(N)c23)ccc1NC(=O)c1cc2ccccc2n1C [Example 30, N-(4-(4-amino-7-((trans)-4-(3-(trifluoromethyl)-5,6-dihydro[1,2,4]triazolo[4,3-a]pyrazin-7(8H)-yl)cyclohexyl)-7H-pyrrolo[2,3-d]pyrimidin-5-yl)-2-methoxyphenyl)-1-methyl-1H-indole-2-carboxamide] | 7.7 nM
COc1cc(-c2cn([C@H]3CC[C@@H](N4CCn5c(nnc5C(C)C)C4)CC3)c3ncnc(N)c23)ccc1NC(=O)c1cc2ccccc2n1C [Example 33, N-(4-(4-amino-7-((cis)-4-(3-isopropyl-5,6-dihydro[1,2,4]triazolo[4,3-a]pyrazin-7(8H)-yl)cyclohexyl)-7H-pyrrolo[2,3-d]pyrimidin-5-yl)-2-methoxyphenyl)-1-methyl-1H-indole-2-carboxamide] | 7.7 nM
COc1cc(-c2cn([C@H]3CC[C@@H](N4CCn5c(C)nnc5C4)CC3)c3ncnc(N)c23)ccc1NC(=O)c1cc2ccccc2n1C [Example 16, N-(4-(4-amino-7-((cis)-4-(3-methyl-5,6-dihydro[1,2,4]triazolo[4,3-a]pyrazin-7(8H)-yl)cyclohexyl)-7H-pyrrolo[2,3-d]pyrimidin-5-yl)-2-methoxyphenyl)-1-methyl-1H-indole-2-carboxamidamide] | 4.9 nM
COc1cc(-c2cn([C@H]3CC[C@H](N4CCn5c(nnc5C(C)C)C4)CC3)c3ncnc(N)c23)ccc1NC(=O)c1cc2ccccc2n1C [Example 34, N-(4-(4-amino-7-((trans)-4-(3-isopropyl-5,6-dihydro[1,2,4]triazolo[4,3-a]pyrazin-7(8H)-yl)cyclohexyl)-7H-pyrrolo[2,3-d]pyrimidin-5-yl)-2-methoxyphenyl)-1-methyl-1H-indole-2-carboxamide] | 7.7 nM
CCc1nnc2n1CCN([C@H]1CC[C@@H](n3cc(-c4ccc(NC(=O)c5cc6ccccc6n5C)c(OC)c4)c4c(N)ncnc43)CC1)C2 [Example 31, N-(4-(4-amino-7-((cis)-4-(3-ethyl-5,6-dihydro[1,2,4]triazolo[4,3-a]pyrazin-7(8H)-yl)cyclohexyl)-7H-pyrrolo[2,3-d]pyrimidin-5-yl)-2-methoxyphenyl)-1-methyl-1H-indole-2-carboxamide] | 11 nM
